Assay results from ChEMBL document CHEMBL3727356, “Therapeutic compounds and compositions” (2014).

Key:
Pyruvate kinase PKLR [1] = target: Pyruvate kinase PKLR (Homo sapiens, UniProt P30613, R510Q); assay: Activation of PKR R510Q mutant (unknown origin) incubated for 60 mins in presence of ADP, PEP and NADH by Spectraax microplate reader based assay
Pyruvate kinase PKLR [2] = target: Pyruvate kinase PKLR (Homo sapiens, UniProt P30613, R532W); assay: Activation of PKR R532W mutant (unknown origin) incubated for 60 mins in presence of ADP, PEP and NADH by Spectraax microplate reader based assay
Pyruvate kinase PKLR (Homo sapiens, UniProt P30613, R532W), sequence (P30613 whole entry R532W): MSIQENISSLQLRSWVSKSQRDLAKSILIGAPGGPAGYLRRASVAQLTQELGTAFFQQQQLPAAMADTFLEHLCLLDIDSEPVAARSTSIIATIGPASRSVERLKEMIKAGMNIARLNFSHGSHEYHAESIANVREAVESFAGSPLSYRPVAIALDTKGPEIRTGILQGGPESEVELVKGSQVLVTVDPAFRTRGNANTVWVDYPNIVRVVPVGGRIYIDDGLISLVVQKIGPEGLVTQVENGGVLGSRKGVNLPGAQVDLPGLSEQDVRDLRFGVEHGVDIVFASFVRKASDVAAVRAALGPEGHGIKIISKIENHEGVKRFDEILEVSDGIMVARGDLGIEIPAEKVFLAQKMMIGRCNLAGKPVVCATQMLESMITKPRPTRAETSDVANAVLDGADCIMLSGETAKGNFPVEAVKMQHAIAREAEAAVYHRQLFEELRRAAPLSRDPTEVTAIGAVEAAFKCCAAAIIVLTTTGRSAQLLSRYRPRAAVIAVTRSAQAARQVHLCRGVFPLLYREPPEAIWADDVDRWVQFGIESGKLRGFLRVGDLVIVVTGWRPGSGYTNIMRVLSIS

Pyruvate kinase PKLR [3] = target: T1, Pyruvate kinase PKLR (Homo sapiens, UniProt P30613); assay: Activation of wild type PKR (unknown origin) incubated for 60 mins in presence of ADP, PEP and NADH by Spectraax microplate reader based assay
T1 sequence (P30613 whole entry): as the sequence (P30613 whole entry R532W) above, with W532R counted along it

Pyruvate kinase PKLR [4] = target: T1, Pyruvate kinase PKLR; assay: Activation of wild type PKR (unknown origin) by cell based assay

Pyruvate kinase PKLR (Homo sapiens, UniProt P30613, R510Q), sequence (P30613 whole entry R510Q): as the sequence (P30613 whole entry R532W) above, with R510Q, W532R counted along it

| Compound | AC50 (Pyruvate kinase PKLR [1]) [nM] | AC50 (Pyruvate kinase PKLR [2]) [nM] | AC50 (Pyruvate kinase PKLR [3]) [nM] | AC50 (Pyruvate kinase PKLR [4]) [nM] |
| --- | --- | --- | --- | --- |
| O=C(c1ccc(NS(=O)(=O)c2cccc3cccnc23)cc1)N1CCC(O)(c2ccccc2C(F)(F)F)CC1 | < 100 | < 100 | < 100 | < 100 |
| Cc1cc(C(=O)N2CCC(O)(c3ccccc3Cl)CC2)ccc1NS(=O)(=O)c1cccc2cccnc12 | < 100 | < 100 | < 100 | < 100 |
| C=C(CC1(O)CCN(C(=O)c2ccc(NS(=O)(=O)c3cccc4scnc34)cc2)CC1)C(F)(F)F | < 100 | < 100 | < 100 | < 100 |
| CC(CC1(O)CCN(C(=O)c2ccc(NS(=O)(=O)c3cccc4scnc34)cc2)CC1)C(F)(F)F (stereo not given) | < 100 | < 100 | < 100 | < 100 |
| Cc1cc(C(=O)N2CCC(O)(c3ccccc3Cl)CC2)ccc1NS(=O)(=O)c1cccc2nccnc12 | < 100 | < 100 | < 100 | < 100 |
| O=C(c1ccc(NS(=O)(=O)c2cccc3cccnc23)cc1OC(F)F)N1CCC(O)(c2ccccc2Cl)CC1 | < 100 | < 100 | < 100 | < 100 |
| O=C(c1ccc(NS(=O)(=O)c2cccc3cccnc23)cc1)N1CCC(O)(c2ccccc2C(F)F)CC1 | < 100 | < 100 | < 100 | < 100 |
| O=C(c1ccc(NS(=O)(=O)c2cccc3cc(F)cnc23)cc1)N1CCC(O)(Cc2ccccc2)CC1 | < 100 | < 100 | < 100 | < 100 |

Further lines, results first:

| AC50 (Pyruvate kinase PKLR [1]) [nM] | AC50 (Pyruvate kinase PKLR [2]) [nM] | AC50 (Pyruvate kinase PKLR [3]) [nM] | AC50 (Pyruvate kinase PKLR [4]) [nM] | Compound |
| --- | --- | --- | --- | --- |
| < 100 | < 100 | < 100 | < 100 | Cc1cnc2cccc(S(=O)(=O)Nc3ccc(C(=O)N4CCC(O)(CC(C)C)CC4)cc3)c2n1 |
| < 100 | < 100 | < 100 | < 100 | CC(C)(C)CC1(O)CCN(C(=O)c2ccc(NS(=O)(=O)c3ccc(F)c4cccnc34)cc2)CC1 |
| < 100 | < 100 | < 100 | < 100 | O=C(c1ccc(NS(=O)(=O)c2cccc3cccnc23)cc1)N1CCC(O)(Cc2ccccc2)CC1 |
| < 100 | < 100 | < 100 | < 100 | O=C(c1ccc(NS(=O)(=O)c2cccc3nccnc23)cc1)N1CCC(O)(CCCC(F)(F)F)CC1 |
| < 100 | < 100 | < 100 | < 100 | O=C(c1ccc(NS(=O)(=O)c2cccc3cccnc23)cc1)N1CCC(O)(c2cccc(F)c2F)CC1 |
| < 100 | < 100 | < 100 | < 100 | CC(C)(C)CC1(O)CCN(C(=O)c2ccc(NS(=O)(=O)c3cccc4scnc34)cc2)CC1 |
| < 100 | < 100 | < 100 | < 100 | COc1ccccc1CC1(O)CCN(C(=O)c2ccc(NS(=O)(=O)c3cccc4cccnc34)cc2)CC1 |
